From patent publication US8710243B2, “Estrogen receptor ligands” (Karo Bio AB, priority 2009, dated 2014) come the findings set out here.

This assay deals with T1, human estrogen receptor beta (Homo sapiens, UniProt Q92731).
T1 construct: expressed in transfected cells; host or cells: HEK293 (CRL-1573)
T1 sequence (Q92731 whole entry): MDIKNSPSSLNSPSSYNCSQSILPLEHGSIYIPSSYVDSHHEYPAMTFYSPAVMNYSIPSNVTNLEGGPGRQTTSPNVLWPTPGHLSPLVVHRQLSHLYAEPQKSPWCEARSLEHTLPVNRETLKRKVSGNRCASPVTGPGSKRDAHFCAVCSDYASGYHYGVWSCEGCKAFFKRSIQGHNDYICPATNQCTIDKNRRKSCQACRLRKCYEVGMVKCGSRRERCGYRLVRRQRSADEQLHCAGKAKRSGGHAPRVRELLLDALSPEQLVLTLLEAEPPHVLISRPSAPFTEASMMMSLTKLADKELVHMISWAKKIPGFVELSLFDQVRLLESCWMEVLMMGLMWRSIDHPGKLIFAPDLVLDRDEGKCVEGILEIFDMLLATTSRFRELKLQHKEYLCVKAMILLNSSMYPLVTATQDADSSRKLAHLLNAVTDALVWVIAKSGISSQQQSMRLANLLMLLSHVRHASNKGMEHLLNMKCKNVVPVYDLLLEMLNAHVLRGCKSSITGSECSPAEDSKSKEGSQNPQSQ
The assay is described as follows: Transactivation Assay 2 in human embryonic kidney 293 cells stably transfected with pERE2-ALP and human estrogen receptor beta. The format is cell-based. The following applies: read-out: potency at the estrogen receptor β-subtype, EC50. As to the method:
Transactivation Assay 2: Transactivation Assay in Human Embryonic Kidney 293 Cells Stably Transfected with pERE2-ALP and Human Estrogen Receptor Beta
Generation of stable HEK293 cell lines (CRL-1573; American Type Culture Collection) expressing the reporter vector pERE2-ALP and human estrogen receptor beta (hERβ 530) have been described (Mol Pharmacol 1998, 54, 105-112; Endocrinology 2002, 143, 1558-1561).
The cells were seeded in 384-well plates at 12 500 cells per well in Ham's F12 Coon's modification (without phenol red) with 10% dextran-coated charcoal treated (DCC) fetal bovine serum (FBS), 2 mM L-glutamine and 50 μg/ml gentamicin. After 24 h incubation (37° C., 5% CO2) the seeding medium was discarded and replaced with 20 μl Ham's F12 Coon's modification (without phenol red) with 1.5% DCC-FCS, 2 mM L-glutamine and supplemented with 100 U/ml penicillin and 100 μg/ml streptomycin. The selected compounds were added to the wells in 12 concentrations ranging from […] to 33 μM. The compounds were dissolved in 100% dimethylsulfoxide (DMSO) and the final concentration of DMSO in the assay was 0.1%. After 72 h incubation (37° C., 5% CO2) the medium was assayed for ALP activity by a chemiluminescence assay; a 10 μl aliquot of the conditioned medium was mixed with 100 μl assay buffer (0.1 M diethanolamine, 1 mM MgC12) and 0.5 mM disodium 3-(4-methoxyspiro 1,2-dioxetane-3,2′-(5′-chloro)-tricyclo[3.3.1.13,7]decan-4-yl)phenyl phosphate (CSPD) (Tropix, Applied Biosystems) and incubated for 20 min at 37° C. and 15 min at room temperature before measurement of the chemiluminescent signal (one second per well) in a Wallac Microbeta Trilux 1450-028 (PerkinElmer). The ALP activity expressed in LCPS is directly proportional to the level of ALP expressed by the cells. The half maximal effective concentrations of the test compounds (EC50) were calculated from the curves fitted to the concentration-response data with a four parameter logistic model in XLfit software version 2.0 (IDBS) or later.
For `Cc1nsc(C)c1-c1c(-c2ccc(O)cc2)c2ccccc2n1C(N)=NO` [Example 24, 2-(3,5-dimethylisothiazol-4-yl)-N′-hydroxy-3-(4-hydroxyphenyl)-1H-indole-1-carboximidamide], the EC50 lay within 0.1 to 10 nM. The same measure for `Cc1noc(C)c1-c1c(-c2ccc(O)cc2)c2ccccc2n1C=NO` [Example 5, 2-(3,5-dimethylisoxazol-4-yl)-3-(4-hydroxyphenyl)-1H-indole-1-carbaldehyde oxime]: 0.1 to 10 nM.

For `Cc1coc(C)c1-c1c(-c2ccc(O)cc2)c2ccccc2n1C(N)=NO` [Example 23, 2-(2,4-dimethylfuran-3-yl)-N′-hydroxy-3-(4-hydroxyphenyl)-1H-indole-1-carboximidamide], the EC50 was in the range of 0.1 to 10 nM. As for `Cc1noc(C)c1-c1c(-c2cc(F)c(O)cc2F)c2ccccc2n1C(N)=NO` [Example 19, 3-(2,5-difluoro-4-hydroxyphenyl)-2-(3,5-dimethylisoxazol-4-yl)-N′-hydroxy-1H-indole-1-carboximidamide], the EC50 fell in the range of 0.1 to 10 nM. As for `Cc1csc(C)c1-c1c(-c2ccc(O)cc2)c2ccccc2n1C(N)=O` [Example 11, 2-(2,4-dimethylthiophen-3-yl)-3-(4-hydroxyphenyl)-1H-indole-1-carboxamide], the figure is 0.1 to 10 nM; as for `Cc1csc(C)c1-c1c(-c2ccc(O)cc2)c2ccccc2n1C(N)=NO` [Example 10, 2-(2,4-dimethylthiophen-3-yl)-N′-hydroxy-3-(4-hydroxyphenyl)-1H-indole-1-carboximidamide], 0.1 to 10 nM; as for `Cc1noc(C)c1-c1c(-c2ccc(O)cc2)c2cc(Cl)ccc2n1C(N)=NO` [Example 22, 5-chloro-2-(3,5-dimethylisoxazol-4-yl)-N′-hydroxy-3-(4-hydroxyphenyl)-1H-indole-1-carboximidamide], 0.1 to 10 nM. As for `Cc1cccc(C)c1-c1c(-c2ccc(O)cc2)c2ccccc2n1C(N)=NO` [Example 12, 2-(2,6-dimethylphenyl)-N′-hydroxy-3-(4-hydroxyphenyl)-1H-indole-1-carboximidamide], the EC50 was 0.1 to 10 nM. For the compound `Cc1noc(C)c1-c1c(-c2ccc(O)cc2)c2ccccc2n1S(C)(=O)=O` [Example 6, 4-(2-(3,5-dimethylisoxazol-4-yl)-1-(methylsulfonyl)-1H-indol-3-yl)phenol], the half-maximal effective concentration (EC50) was 0.1 to 10 nM. The same measure for `Cc1noc(C)c1-c1c(-c2cc(F)c(O)c(F)c2)c2ccccc2n1C(N)=NO` [Example 16, 3-(3,5-difluoro-4-hydroxyphenyl)-2-(3,5-dimethylisoxazol-4-yl)-N′-hydroxy-1H-indole-1-carboximidamide]: 0.1 to 10 nM; for `CC=C(C)c1c(-c2ccc(O)cc2)c2ccccc2n1C(N)=NO` (stereo in doubt) [Example 7, 2-((E)-but-2-en-2-yl)-N′-hydroxy-3-(4-hydroxyphenyl)-1H-indole-1-carboximidamide]: 0.1 to 10 nM; for `Cc1noc(C)c1-c1c(-c2ccc(O)c(F)c2)c2ccccc2n1C(N)=NO` [Example 20, 2-(3,5-dimethylisoxazol-4-yl)-3-(3-fluoro-4-hydroxyphenyl)-N′-hydroxy-1H-indole-1-carboximidamide]: 0.1 to 10 nM. Turning to `Cc1noc(C)c1-c1c(-c2ccc(O)cc2)c2ccccc2n1C(N)=O` [Example 3, 2-(3,5-dimethylisoxazol-4-yl)-3-(4-hydroxyphenyl)-1H-indole-1-carboxamide], the EC50 lay in the range of 0.1 to 10 nM.

In the case of `Cc1noc(C)c1-c1c(-c2ccc(O)cc2F)c2ccccc2n1C(N)=NO` [Example 18, 2-(3,5-dimethylisoxazol-4-yl)-3-(2-fluoro-4-hydroxyphenyl)-N′-hydroxy-1H-indole-1-carboximidamide], the EC50 was 0.1 to 10 nM. Regarding `Cc1noc(C)c1-c1c(-c2ccc(O)cc2)c2ccccc2n1C(N)=NO` [Example 2, 2-(3,5-dimethylisoxazol-4-yl)-N′-hydroxy-3-(4-hydroxyphenyl)-1H-indole-1-carboximidamide], the EC50 was 0.1 to 10 nM. The same measure for `CCNC(=O)n1c(-c2c(C)noc2C)c(-c2ccc(O)cc2)c2ccccc21` [Example 8, 2-(3,5-dimethylisoxazol-4-yl)-N-ethyl-3-(4-hydroxyphenyl)-1H-indole-1-carboxamide]: 0.1 to 10 nM; for `Cc1csc(C)c1-c1c(-c2ccc(O)cc2)c2cc(Cl)ccc2n1C(N)=NO` [Example 21, 5-chloro-2-(2,4-dimethylthiophen-3-yl)-N′-hydroxy-3-(4-hydroxyphenyl)-1H-indole-1-carboximidamide]: 0.1 to 10 nM.

The EC50 is the concentration needed to bring the measured effect to its halfway point.
